Test results: patent US20100256230A1, “1-BUTANE ACID DERIVATIVES, PHARMACEUTICAL COMPOSITIONS CONTAINING SAID DERIVATIVES AND THE USE THEREOF” (SCHEBO BIOTECH AG, priority 2001, published 2010)

What was measured:
Novikoff hepatoma cells = experiment: Proliferation inhibition of Novikoff hepatoma cells (cell count after four days of cultivation); type: cell-based; conditions: Novikoff hepatoma cells, 100,000 cells seeded per 25 cm2 bottle, counted after four days of cultivation, compared to control without compound; FIGS. 1 and 2
Protocol: The cell density was measured after four days of cultivation.
The cell density was measured after 4 days of cultivation.
The Novikoff hepatoma cells utilized in this example were obtained from the tumor bank of the Deutsches Krebsforschungszentrum, Heidelberg (Cancer Research 1951, 17, 1010). 100,000 cells each are seeded per 25 cm^2 cultivation bottle. The substance according to Example 1 of the invention, dissolved in a solvent suitable for use in cell cultures, for instance water, diluted ethanol, dimethylsulfoxide or the like, was added in an increasing concentration to the culture medium, e.g. L-cycloserine (compound 16) or dehydrothreonine (compound 2) in a concentration range of 80 μM-5,000 μM; carbomethoxypropionyl cyanide (compound 13) in a range of 100 μM-300 μM. After four days of cultivation, the number of cells per bottle was counted. The results are shown in FIGS. 1 and 2, and a dose dependence of the proliferation inhibition compared to the control sample without addition of a compound according to the invention can be seen.

[1] = test system: glycolysis of Novikoff-Zellen hepatoma cells; experiment: Inhibition of glycolysis of Novikoff cells (lactate produced for glucose consumed); type: cell-based

| SMILES | inhibition of tumor cell growth (proliferation inhibition, cell density) (Novikoff hepatoma cells) | inhibition of glycolysis flow, lactate produced for glucose consumed ([1]; FIG. 3) | inhibition of glycolysis flow, lactate produced for glucose consumed ([1]; FIG. 3, listed as CMPC) |
| --- | --- | --- | --- |
| N[C@H]1CONC1=O [L-glycoserine, L-cycloserine] | dose-dependent inhibition of tumor cell growth |  |  |
| COC(=O)CCC(=O)C#N [carbomethoxypropionyl cyanide] | dose-dependent inhibition of tumor cell growth | massively inhibits the glycolysis flow | inhibition of glycolysis |
